Laboratory results published in ChEMBL document CHEMBL1201862, “PubChem BioAssay data set” (2004).
Activity calls are given as the source filed them.

How the values were obtained:
[1] = target: T1, DNA repair protein RAD52 homolog (Homo sapiens, UniProt P43351); type: functional, biochemical
T1 sequence (P43351 whole entry): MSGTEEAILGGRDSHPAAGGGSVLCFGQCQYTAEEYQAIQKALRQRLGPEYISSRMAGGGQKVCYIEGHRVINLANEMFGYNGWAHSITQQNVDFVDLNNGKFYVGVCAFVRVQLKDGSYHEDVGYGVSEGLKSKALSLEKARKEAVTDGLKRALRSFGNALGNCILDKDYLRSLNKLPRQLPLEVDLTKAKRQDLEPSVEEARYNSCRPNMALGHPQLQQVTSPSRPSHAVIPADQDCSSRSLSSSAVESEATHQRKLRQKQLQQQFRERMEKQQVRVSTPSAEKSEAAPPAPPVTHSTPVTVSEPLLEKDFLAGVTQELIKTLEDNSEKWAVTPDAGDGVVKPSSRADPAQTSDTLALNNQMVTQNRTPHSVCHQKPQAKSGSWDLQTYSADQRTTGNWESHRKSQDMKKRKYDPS

HEK293 = experiment: cells; type: functional, cell-based; conditions: Homo sapiens
[2] = target: T2, Nuclear receptor subfamily 0 group B member 1 (Homo sapiens, UniProt P51843); experiment: Luminescence-based cell-based high throughput dose response assay for inhibitors of the orphan nuclear receptor subfamily 0, group B, member 1 (DAX1; NR0B1). [Related pubchem assays (depositor defined):AID504766, AID504790]; type: functional
T2 sequence (P51843 whole entry): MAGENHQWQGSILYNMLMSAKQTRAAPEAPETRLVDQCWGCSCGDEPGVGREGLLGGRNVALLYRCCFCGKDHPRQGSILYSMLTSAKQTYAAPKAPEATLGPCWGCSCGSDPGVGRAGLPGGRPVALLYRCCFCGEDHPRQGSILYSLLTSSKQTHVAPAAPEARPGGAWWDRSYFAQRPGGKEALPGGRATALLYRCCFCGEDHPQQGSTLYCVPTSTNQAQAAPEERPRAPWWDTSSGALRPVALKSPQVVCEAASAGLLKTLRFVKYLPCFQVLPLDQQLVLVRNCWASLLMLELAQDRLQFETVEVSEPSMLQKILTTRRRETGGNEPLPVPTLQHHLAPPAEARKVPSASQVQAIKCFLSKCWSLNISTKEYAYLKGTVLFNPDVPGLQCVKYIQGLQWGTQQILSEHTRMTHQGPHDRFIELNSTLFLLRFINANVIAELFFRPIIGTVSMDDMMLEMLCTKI

[3] = target: E3 ubiquitin-protein ligase UHRF1 (Homo sapiens, UniProt Q96T88); experiment: Counterscreen for inhibitors of 5-meCpG-binding domain protein 2 (MBD2): TRFRET-based biochemical high throughput dose response assay to identify inhibitors of binding of ubiquitin-like with PHD and ring finger domains 1 (UHRF1) to methylated oligonucleotide.
Sequence of E3 ubiquitin-protein ligase UHRF1 (Q96T88 whole entry, the tested form may be a part): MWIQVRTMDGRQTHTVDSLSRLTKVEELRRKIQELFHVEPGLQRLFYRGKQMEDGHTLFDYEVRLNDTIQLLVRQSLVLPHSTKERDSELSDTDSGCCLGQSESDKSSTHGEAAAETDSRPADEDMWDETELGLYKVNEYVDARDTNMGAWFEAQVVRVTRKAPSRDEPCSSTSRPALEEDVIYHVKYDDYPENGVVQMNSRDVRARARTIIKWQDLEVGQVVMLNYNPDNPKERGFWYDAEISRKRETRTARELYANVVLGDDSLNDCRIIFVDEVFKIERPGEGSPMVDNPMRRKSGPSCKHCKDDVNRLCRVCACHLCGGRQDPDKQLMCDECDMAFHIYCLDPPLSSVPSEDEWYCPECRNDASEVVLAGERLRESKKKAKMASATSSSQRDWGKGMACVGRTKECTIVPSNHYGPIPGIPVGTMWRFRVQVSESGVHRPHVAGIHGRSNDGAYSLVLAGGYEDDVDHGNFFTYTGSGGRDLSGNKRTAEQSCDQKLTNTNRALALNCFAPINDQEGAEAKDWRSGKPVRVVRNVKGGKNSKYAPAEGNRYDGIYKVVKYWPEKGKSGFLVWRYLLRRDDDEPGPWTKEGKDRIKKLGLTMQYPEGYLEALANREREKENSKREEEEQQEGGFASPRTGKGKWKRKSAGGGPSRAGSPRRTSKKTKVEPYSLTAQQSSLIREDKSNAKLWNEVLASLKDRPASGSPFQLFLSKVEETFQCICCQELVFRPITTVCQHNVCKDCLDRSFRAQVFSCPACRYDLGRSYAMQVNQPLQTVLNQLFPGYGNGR

Vero = experiment: mammalian cell viability reduction – secondary assay, cytotoxicity control for West Nile virus antiviral project, dose response (AID 1650); type: functional; conditions: Chlorocebus sabaeus
[4] = target: T3, DNA repair and recombination protein RAD54-like (Homo sapiens, UniProt Q92698); experiment: RAD54 Holliday junction migration blockers – biochemical, fluorescence, cherry-picked samples, dose series, confirmation (AID 651657); type: functional
T3 sequence (Q92698 whole entry): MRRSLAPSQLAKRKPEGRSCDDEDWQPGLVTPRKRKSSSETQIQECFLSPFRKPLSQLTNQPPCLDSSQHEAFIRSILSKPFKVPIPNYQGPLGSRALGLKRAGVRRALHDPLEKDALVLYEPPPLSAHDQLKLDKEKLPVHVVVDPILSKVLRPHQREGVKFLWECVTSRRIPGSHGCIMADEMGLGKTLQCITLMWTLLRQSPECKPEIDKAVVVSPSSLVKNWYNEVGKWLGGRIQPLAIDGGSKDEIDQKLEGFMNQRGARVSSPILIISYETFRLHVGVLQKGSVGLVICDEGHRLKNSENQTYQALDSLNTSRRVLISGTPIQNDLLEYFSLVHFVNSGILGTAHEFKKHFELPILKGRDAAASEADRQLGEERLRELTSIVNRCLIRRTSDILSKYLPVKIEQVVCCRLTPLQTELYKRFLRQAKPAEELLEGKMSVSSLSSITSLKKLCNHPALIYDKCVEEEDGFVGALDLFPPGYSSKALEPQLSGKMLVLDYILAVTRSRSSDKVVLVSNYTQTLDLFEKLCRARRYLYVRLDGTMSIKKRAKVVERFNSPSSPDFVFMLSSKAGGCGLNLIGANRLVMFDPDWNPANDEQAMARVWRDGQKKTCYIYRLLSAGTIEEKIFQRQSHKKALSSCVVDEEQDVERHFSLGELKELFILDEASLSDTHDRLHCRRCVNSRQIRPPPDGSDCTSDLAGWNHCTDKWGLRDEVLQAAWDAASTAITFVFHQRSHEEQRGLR

Phospholipase D2 = Phospholipase D2 (Homo sapiens, UniProt O14939); experiment: PLD2 Cellular Concentration Response Study.; type: functional
Sequence of Phospholipase D2 (O14939 whole entry): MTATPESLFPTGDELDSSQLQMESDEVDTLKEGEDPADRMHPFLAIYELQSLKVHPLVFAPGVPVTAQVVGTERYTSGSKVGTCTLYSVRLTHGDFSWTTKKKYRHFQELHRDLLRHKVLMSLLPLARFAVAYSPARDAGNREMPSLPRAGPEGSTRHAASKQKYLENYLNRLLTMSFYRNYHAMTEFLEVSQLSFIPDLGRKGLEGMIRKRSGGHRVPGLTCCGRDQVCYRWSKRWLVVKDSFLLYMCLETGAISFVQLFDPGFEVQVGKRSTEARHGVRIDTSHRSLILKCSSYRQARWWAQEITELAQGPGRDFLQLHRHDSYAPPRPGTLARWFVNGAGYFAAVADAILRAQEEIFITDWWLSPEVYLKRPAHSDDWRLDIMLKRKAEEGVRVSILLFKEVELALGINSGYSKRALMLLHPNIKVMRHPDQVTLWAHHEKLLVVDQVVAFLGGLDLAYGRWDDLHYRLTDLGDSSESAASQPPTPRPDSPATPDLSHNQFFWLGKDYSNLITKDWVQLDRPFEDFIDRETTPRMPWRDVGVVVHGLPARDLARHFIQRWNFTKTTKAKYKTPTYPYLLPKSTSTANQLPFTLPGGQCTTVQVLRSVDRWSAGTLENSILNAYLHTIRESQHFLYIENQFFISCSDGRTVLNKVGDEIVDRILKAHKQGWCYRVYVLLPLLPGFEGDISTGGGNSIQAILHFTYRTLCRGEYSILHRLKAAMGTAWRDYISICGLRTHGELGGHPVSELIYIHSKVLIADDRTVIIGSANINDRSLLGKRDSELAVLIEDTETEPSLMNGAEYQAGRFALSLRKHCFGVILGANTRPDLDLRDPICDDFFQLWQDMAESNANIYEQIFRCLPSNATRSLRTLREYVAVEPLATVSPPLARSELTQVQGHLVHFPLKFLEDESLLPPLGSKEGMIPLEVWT

Phospholipase D1 = Phospholipase D1 (Homo sapiens, UniProt Q13393); experiment: PLD1 Cellular Concentration Response Study.; type: functional
Sequence of Phospholipase D1 (Q13393 whole entry): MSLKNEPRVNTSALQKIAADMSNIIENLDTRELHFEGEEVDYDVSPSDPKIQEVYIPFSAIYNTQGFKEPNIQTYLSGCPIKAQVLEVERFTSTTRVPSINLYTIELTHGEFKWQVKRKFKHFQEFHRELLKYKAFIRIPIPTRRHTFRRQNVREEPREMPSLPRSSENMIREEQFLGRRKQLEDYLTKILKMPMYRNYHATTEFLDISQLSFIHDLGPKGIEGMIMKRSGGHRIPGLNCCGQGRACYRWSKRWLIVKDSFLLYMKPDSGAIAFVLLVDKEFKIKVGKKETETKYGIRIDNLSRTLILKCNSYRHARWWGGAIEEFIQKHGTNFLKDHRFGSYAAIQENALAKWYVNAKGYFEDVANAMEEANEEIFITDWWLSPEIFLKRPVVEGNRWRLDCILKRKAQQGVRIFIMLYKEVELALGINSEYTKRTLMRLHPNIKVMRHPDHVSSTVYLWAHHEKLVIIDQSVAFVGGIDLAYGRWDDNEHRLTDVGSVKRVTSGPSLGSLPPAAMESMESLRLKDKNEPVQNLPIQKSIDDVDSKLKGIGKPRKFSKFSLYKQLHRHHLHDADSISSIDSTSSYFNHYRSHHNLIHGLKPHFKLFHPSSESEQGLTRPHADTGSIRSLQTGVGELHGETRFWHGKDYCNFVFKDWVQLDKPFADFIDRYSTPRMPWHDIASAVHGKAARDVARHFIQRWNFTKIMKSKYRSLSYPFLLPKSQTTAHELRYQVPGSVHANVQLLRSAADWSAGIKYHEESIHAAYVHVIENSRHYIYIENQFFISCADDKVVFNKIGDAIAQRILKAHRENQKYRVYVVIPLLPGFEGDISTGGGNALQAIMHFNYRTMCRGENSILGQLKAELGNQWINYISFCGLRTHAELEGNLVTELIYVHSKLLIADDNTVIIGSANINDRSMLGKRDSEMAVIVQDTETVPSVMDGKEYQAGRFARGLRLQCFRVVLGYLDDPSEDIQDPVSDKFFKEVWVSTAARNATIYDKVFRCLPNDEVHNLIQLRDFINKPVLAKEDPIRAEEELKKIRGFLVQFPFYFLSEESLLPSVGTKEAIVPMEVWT

[5] = target: E3 ubiquitin-protein ligase Mdm2 (Homo sapiens, UniProt Q00987); experiment: MDM2-luc reporter signal enhancers, multi-concentration potency testing, MDM2 ubiquitin-protein ligase inhibitor program, whole-cell format, luminescence detection, 384-well microplate (AID 1394); type: functional;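 note: MDM2 E3 inhibitors raise luminescence so EC50 is for signal enhancement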
Sequence of E3 ubiquitin-protein ligase Mdm2 (Q00987 whole entry): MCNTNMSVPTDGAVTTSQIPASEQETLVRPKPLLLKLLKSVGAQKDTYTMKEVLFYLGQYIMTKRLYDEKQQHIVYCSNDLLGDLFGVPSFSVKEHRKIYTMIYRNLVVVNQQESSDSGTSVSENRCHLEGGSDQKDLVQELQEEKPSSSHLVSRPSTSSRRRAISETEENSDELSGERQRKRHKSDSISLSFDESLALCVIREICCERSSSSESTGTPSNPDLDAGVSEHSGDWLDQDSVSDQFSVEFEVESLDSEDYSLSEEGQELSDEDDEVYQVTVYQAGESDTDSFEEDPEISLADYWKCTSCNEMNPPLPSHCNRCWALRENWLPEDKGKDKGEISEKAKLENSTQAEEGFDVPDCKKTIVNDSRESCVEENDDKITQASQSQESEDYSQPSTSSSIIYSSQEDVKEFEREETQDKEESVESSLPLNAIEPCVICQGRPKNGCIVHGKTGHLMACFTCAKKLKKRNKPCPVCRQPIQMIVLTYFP

BJ [6] = experiment: cells; type: functional, cell-based; conditions: Homo sapiens
[7] = DRD fibroblast viability loss – cell-based, non-viral oncogenic, luminescence, dose response (AID 1934); type: functional; conditions: Homo sapiens
Protein RecA = target: T4, Protein RecA (Mycobacterium tuberculosis, UniProt P9WHJ3); experiment: Fluorescence Cell-Free Homogeneous Dose Retest to Identify Inhibitors of RecA-Intein Splicing Activity. [Related pubchem assays (depositor defined):AID2097, AID2223, AID489010, AID492950]; type: functional
T4 sequence (P9WHJ3 whole entry): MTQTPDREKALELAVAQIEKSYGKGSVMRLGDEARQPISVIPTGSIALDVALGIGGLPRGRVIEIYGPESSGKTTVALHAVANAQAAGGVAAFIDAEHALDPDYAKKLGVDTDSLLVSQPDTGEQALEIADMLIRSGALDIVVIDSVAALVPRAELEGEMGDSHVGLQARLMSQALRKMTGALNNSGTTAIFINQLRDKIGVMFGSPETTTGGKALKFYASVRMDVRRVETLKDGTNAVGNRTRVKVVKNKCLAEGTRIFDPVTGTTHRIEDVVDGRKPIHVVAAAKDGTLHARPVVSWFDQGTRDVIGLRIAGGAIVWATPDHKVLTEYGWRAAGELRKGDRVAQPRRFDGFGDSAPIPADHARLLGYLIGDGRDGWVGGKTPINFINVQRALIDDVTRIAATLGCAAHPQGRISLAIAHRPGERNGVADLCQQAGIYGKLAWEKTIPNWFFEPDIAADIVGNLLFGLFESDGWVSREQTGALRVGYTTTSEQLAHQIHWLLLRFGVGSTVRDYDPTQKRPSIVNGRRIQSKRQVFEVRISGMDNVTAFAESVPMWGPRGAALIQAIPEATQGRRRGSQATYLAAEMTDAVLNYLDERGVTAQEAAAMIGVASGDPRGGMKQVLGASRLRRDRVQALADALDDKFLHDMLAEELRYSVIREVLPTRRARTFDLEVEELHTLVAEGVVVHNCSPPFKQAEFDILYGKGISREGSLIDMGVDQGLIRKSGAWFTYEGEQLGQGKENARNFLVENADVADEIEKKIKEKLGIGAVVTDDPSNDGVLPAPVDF

BJ [8] = experiment: BJ-TERT fibroblast viability loss – cell-based, RAS-independent, luminescence, dose response (AID 1933); type: functional; conditions: Homo sapiens
[9] = target: T5, Replicative DNA helicase DnaB (Mycobacterium tuberculosis, UniProt P9WMR3); experiment: DnaB intein splicing inhibitors, dose response, biochemical, cell-free fluorescence (AID 449749); type: functional
T5 sequence (P9WMR3 whole entry): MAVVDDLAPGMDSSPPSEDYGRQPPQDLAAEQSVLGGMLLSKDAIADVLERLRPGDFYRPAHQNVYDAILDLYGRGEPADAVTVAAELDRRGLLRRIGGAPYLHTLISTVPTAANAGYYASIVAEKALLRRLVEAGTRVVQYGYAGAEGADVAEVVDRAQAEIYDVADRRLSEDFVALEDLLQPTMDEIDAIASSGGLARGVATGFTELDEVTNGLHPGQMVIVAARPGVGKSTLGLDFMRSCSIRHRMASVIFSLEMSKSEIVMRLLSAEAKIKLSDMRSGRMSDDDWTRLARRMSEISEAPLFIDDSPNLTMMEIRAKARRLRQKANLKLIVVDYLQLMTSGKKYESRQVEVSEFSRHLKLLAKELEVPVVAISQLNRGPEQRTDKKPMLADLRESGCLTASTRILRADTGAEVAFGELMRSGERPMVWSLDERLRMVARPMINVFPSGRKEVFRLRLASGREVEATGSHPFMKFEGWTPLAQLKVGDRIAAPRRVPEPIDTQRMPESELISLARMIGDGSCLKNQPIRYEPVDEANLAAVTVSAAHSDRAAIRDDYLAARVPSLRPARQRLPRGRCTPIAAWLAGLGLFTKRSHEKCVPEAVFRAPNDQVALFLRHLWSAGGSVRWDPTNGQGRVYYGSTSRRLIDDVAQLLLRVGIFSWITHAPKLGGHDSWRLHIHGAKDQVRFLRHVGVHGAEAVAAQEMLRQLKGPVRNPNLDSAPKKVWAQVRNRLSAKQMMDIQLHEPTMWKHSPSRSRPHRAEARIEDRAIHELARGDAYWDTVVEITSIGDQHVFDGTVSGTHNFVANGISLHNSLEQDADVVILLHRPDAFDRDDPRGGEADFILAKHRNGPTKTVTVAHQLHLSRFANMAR

[10] = viability loss in Vero cells – cytotoxicity control for Vif-APOBEC3G degradation inhibitor project, dose response (AID 1117358); type: functional; conditions: Vero
[11] = target: T6, Calpain-2 catalytic subunit (Sus scrofa, UniProt P43367); experiment: m-calpain protease blockers, concentration series – biochemical, fluorogenic peptide substrate, dose response (AID 1420); type: functional
T6 sequence (P43367 whole entry): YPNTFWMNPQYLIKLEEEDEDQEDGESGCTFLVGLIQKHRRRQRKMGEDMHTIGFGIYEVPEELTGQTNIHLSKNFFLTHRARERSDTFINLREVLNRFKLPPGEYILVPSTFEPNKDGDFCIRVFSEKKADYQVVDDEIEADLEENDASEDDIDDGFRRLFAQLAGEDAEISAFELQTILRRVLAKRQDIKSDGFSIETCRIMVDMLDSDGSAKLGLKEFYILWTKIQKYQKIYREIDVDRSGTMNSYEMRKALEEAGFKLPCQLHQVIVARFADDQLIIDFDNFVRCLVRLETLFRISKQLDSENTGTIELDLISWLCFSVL

For CCOC(=O)c1cnc2c(ccc3ccccc32)c1NCCCN(C)C, the AC50 [1] was 1.38 µM (active), the IC50 (HEK293) was > 67.5 µM (inactive) and the IC50 [2] was > 67.5 µM (inactive). For the same molecule, the IC50 [3] was 35.7 µM (inactive), the CC50 (Vero) was > 100 µM (active) and the AC50 [4] was 3.38 µM (active).

In the case of O=C(NCCN1CCC2(CC1)C(=O)NCN2Cc1ccccc1F)c1ccc2ccccc2c1, the IC50 (Phospholipase D2) is reported as 0.2 µM (active) and the IC50 (Phospholipase D1) is reported as 4.59 µM (active).

For Cc1ccc(C=C2C(Cl)=C(Cl)C(Cl)=C2Cl)cc1, the EC50 [5] was 0.78 µM (active), the EC50 (BJ [6]) was 6.03 µM (inconclusive) and the EC50 [7] was 5.03 µM (inconclusive). The EC50 (Protein RecA) was 5.66 µM (active), the EC50 (BJ [8]) was 5.3 µM (inconclusive) and the AC50 [9] was > 380 µM (inactive).

In the case of Cc1cc(-c2ccccc2)nc(Oc2ccc(C(C)(C)C)cc2)c1S(C)(=O)=O, the CC50 [10] is reported as > 40 µM (active) and the IC50 [11] is reported as > 50 µM (not active).
